Reference: the supplement of paper PMC10307832

Experiments:
Test in all cases: relative viability (nuclei count vs DMSO), 5 days (fraction); higher = more cells survive
TGX 221 + OSI-027 = compound: CC1=CN2C(=O)C=C(N=C2C(=C1)C(C)NC3=CC=CC=C3)N4CCOCC4 [TGX 221] + COc1cccc2cc(-c3nc([C@H]4CC[C@H](C(=O)O)CC4)n4ncnc(N)c34)[nH]c12 [OSI-027] (partner 0.5 µM)
Summary of the method: (§1)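 Lung cancer cell lines in 1536-well plates got either a single drug or a fixed anchor-drug dose together with five library-drug doses (not always all listed) in √10 steps, by pin tool, on the day after seeding. Nuclei were counted after 5 days, and relative viability is the treated-to-vehicle ratio of nuclei counts. Values are medians of duplicate plates.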

[1] = compound: C1=CC=C(C(=C1)C2=CC=C(C=C2)C3=CSC4=C3C(=C(C(=O)N4)C#N)O)O + O=C(CCCCCCC(=O)Nc1ccccc1)NO [Vorinostat] (partner 1 µM)
Summary of the method: as §1

Ricolinostat + Alpelisib = compound: O=C(CCCCCCNC(=O)c1cnc(N(c2ccccc2)c2ccccc2)nc1)NO [Ricolinostat] + Cc1nc(NC(=O)N2CCC[C@H]2C(N)=O)sc1-c1ccnc(C(C)(C)C(F)(F)F)c1 [Alpelisib] (partner 2 µM)
Summary of the method: as §1

[2] = compound: C1=CC=C(C(=C1)C2=CC=C(C=C2)C3=CSC4=C3C(=C(C(=O)N4)C#N)O)O + COc1cccc2cc(-c3nc([C@H]4CC[C@H](C(=O)O)CC4)n4ncnc(N)c34)[nH]c12 [OSI-027] (partner 0.5 µM)
Summary of the method: as §1

Row | Cell Line | relative viability (TGX 221 + OSI-027; first compound 0.08 µM) | relative viability (TGX 221 + OSI-027; first compound 0.253 µM) | relative viability (TGX 221 + OSI-027; first compound 0.8 µM) | relative viability (TGX 221 + OSI-027; first compound 2.53 µM) | relative viability (TGX 221 + OSI-027; first compound 8 µM) | relative viability ([1]; first compound 0.08 µM) | relative viability ([1]; first compound 0.253 µM) | relative viability ([1]; first compound 0.8 µM) | relative viability ([1]; first compound 2.53 µM) | relative viability ([1]; first compound 8 µM) | relative viability (Ricolinostat + Alpelisib; first compound 0.08 µM) | relative viability (Ricolinostat + Alpelisib; first compound 0.253 µM) | relative viability (Ricolinostat + Alpelisib; first compound 0.8 µM) | relative viability (Ricolinostat + Alpelisib; first compound 2.53 µM) | relative viability ([2]; first compound 0.08 µM) | relative viability ([2]; first compound 0.253 µM) | relative viability ([2]; first compound 0.8 µM) | relative viability ([2]; first compound 2.53 µM) | relative viability ([2]; first compound 8 µM)
1 | LXF-289 | 0.817 | 0.809 | 0.756 | 0.754 | 0.757 | 0.902 | 0.831 | 0.833 | 0.82 | 0.907 | 0.961 | 1 | 1.06 | 1.01 | 0.666 | 0.801 | 0.778 | 0.865 | 0.732
2 | NCI-H23 | 0.506 | 0.613 | 0.594 | 0.456 | 0.517 | 0.541 | 0.559 | 0.572 | 0.525 | 0.242 | 0.56 | 0.644 | 0.882 | 0.703 | 0.69 | 0.523 | 0.596 | 0.575 | 0.537
3 | NCI-H322M | 0.541 | 0.515 | 0.551 | 0.507 | 0.567 | 0.841 | 0.756 | 0.817 | 0.865 | 0.855 |  | 0.829 | 0.795 | 0.715 | 0.59 | 0.489 | 0.502 | 0.576 | 0.514
4 | NCI-H522 | 0.606 | 0.739 | 0.704 | 0.789 | 0.641 | 0.929 | 0.898 | 1.06 | 0.921 | 0.86 |  |  |  |  | 0.606 | 0.73 | 0.86 | 0.771 | 0.657
5 | NCI-H1299 |  |  |  |  |  |  |  |  |  |  | 1.06 | 0.99 | 0.988 | 0.944 |  |  |  |  | 
6 | NCI-H1563 | 0.796 | 0.653 | 0.69 | 0.754 | 0.633 |  |  |  |  |  | 0.916 | 0.994 | 0.862 | 0.857 | 0.672 | 0.746 | 0.7 | 0.774 | 0.745
7 | NCI-H1623 | 0.44 | 0.402 | 0.423 | 0.389 | 0.477 |  |  |  |  |  |  |  |  |  | 0.469 | 0.453 | 0.382 | 0.427 | 0.419
8 | NCI-H1648 | 0.268 |  | 0.256 | 0.237 | 0.254 |  | 0.319 | 0.876 | 0.593 | 0.391 |  |  |  |  | 0.312 |  | 0.224 | 0.27 | 0.311
9 | NCI-H1650 | 0.648 | 0.55 | 0.737 | 0.661 | 0.529 | 0.462 | 0.546 | 0.498 | 0.531 | 0.435 |  |  |  |  | 0.477 | 0.784 | 0.738 | 0.508 | 0.43
10 | NCI-H1703 |  |  |  |  |  |  |  |  |  |  |  | 0.316 | 0.401 | 0.377 |  |  |  |  | 
11 | NCI-H2342 | 0.544 | 0.655 | 0.613 | 0.631 | 0.602 | 0.801 | 0.83 | 0.871 | 0.71 | 0.586 |  |  |  |  | 0.555 | 0.702 | 0.561 | 0.664 | 0.555
12 | SW 900 | 0.609 | 0.482 | 0.449 | 0.429 | 0.713 |  | 0.633 | 0.412 | 0.406 | 0.358 |  |  |  |  | 0.461 | 0.628 | 0.426 | 0.462 | 0.356
